Patent EP2394998A1, “3-(5-Amino-6-oxo-1,6-dihydropyridazin-3-yl)-biphenyl derivatives as PDE4 inhibitors” (Almirall, S.A., priority 2010, dated 2011)
pIC50: −log10 of the molar value.

What follows are compounds tested against recombinant PDE4 enzyme (assay: PDE4 assay: [3H] cAMP Scintillation Proximity Assay (SPA) of phosphodiesterase activity). Settings: yeast extract of recombinant PDE4 enzyme; 30 nM [3H] cAMP; 1 h at room temperature; pH 7.5.
Type: biochemical
Experimental: Measurement of Phosphodiesterase Activity was done using a [3H] cAMP Scintillation Proximity Assay (SPA) (GE Healthcare). Compounds to be tested were disolved in dimethylsulfoxide (DMSO) at a stock concentration of 1 mM and serial dilutions were prepared in 50% DMSO to determine IC50s.
The reactions were conducted in 96-well plates (Corning, Ref.3604) at room temperature, in 0.1 mL of reaction buffer containing (final concentrations): 50 mM Tris-HCl, pH 7.5, 8.3 mM MgCl2, 1.7 mM EGTA, 30 nM [3H] cAMP (approximately 150000 dpm/well) with or without the inhibitors. The reaction was initiated by adding yeast extract of recombinant PDE4 enzyme.
Plates were shaken for 1 h at room temperature and the incubation was terminated by adding 50 µL (0.5 mg /well) of SPA ytrium silicate beads (RPNQ 0150; GE Healthcare) in the presence of zinc sulfate. Plates were stored overnight in the dark and read on a TRILUX microtiter plate reader (Perkin Elmer).
`CCn1nc(-c2cccc(-c3cccc(C(=O)NCCN4CCOCC4)c3)c2)cc(Nc2cccc3ncccc23)c1=O` [Example 15, 3'-[1-ethyl-6-oxo-5-(quinolin-5-ylamino)-1,6-dihydropyridazin-3-yl]-N-(2-morpholin-4-ylethyl)biphenyl-3-carboxamide] gave a pIC50 of 10.72. For `CCn1nc(-c2cccc(-c3cccc(C(=O)NCC(N)=O)c3)c2)cc(Nc2cccc3ncccc23)c1=O` [Example 48, N-(2-Amino-2-oxoethyl)-3'-(1-ethyl-6-oxo-5-(quinolin-5-ylamino)-1,6-dihydropyridazin-3-yl)biphenyl-3-carboxamide], the pIC50 was 10.39. For `CCn1nc(-c2cccc(-c3cccc(C(=O)NC4CC4)c3)c2)cc(Nc2cccc3ncccc23)c1=O` [Example 13, N-cyclopropyl-3'-[1-ethyl-6-oxo-5-(quinolin-5-ylamino)-1,6-dihydropyridazin-3-yl]biphenyl-3-carboxamide], the pIC50 was 10.43. In the case of `CCn1nc(-c2cccc(-c3cccc(C(=O)NCCN4CCCCC4)c3)c2)cc(Nc2cccc3ncccc23)c1=O` [Example 16, 3'-[1-ethyl-6-oxo-5-(quinolin-5-ylamino)-1,6-dihydropyridazin-3-yl]-N-(2-piperidin-1-ylethyl)biphenyl-3-carboxamide], the pIC50 was 10.35. `CCn1nc(-c2cccc(-c3cccc(C(=O)NCCN(C)C)c3)c2)cc(Nc2cccc3ncccc23)c1=O` [Example 12, N-[2-(dimethylamino)ethyl]-3'-[1-ethyl-6-oxo-5-(quinolin-5-ylamino)-1,6-dihydropyridazin-3-yl]biphenyl-3-carboxamide] showed a pIC50 of 9.90. `CCn1nc(-c2cccc(-c3cccc(C(=O)NC4CCN(C)CC4)c3)c2)cc(Nc2cncc3ccccc23)c1=O` [Example 36, 3'-[1-ethyl-5-(isoquinolin-4-ylamino)-6-oxo-1,6-dihydropyridazin-3-yl]-N-(1-methylpiperidin-4-yl)biphenyl-3-carboxamide] gave a pIC50 of 9.76. In the case of `CCn1nc(-c2cccc(-c3cc(C(=O)NCCCN4CCC[C@H]4COC)cc(C(=O)NC4CC4)c3)c2)cc(Nc2cccc3ncccc23)c1=O` [Example 62, N-cyclopropyl-3'-[1-ethyl-6-oxo-5-(quinolin-5-ylamino)-1,6-dihydropyridazin-3-yl]-N'-{3-[(2S)-2-(methoxymethyl)pyrrolidin-1-yl]propyl}biphenyl-3,5-dicarboxamide], the pIC50 was 10.64. Work on `CCn1nc(-c2cccc(-c3cccc(C(=O)NCCN4CCOCC4)c3)c2)cc(Nc2cncc3ccccc23)c1=O` [Example 17, 3'-[1-ethyl-5-(isoquinolin-4-ylamino)-6-oxo-1,6-dihydropyridazin-3-yl]-N-(2-morpholin-4-ylethyl)biphenyl-3-carboxamide] yielded a pIC50 of 10.37. With `CCn1nc(-c2cccc(-c3ccc(C(=O)NCCN4CCCCC4)cc3)c2)cc(Nc2cncc3ccccc23)c1=O` [Example 22, 3'-[1-ethyl-5-(isoquinolin-4-ylamino)-6-oxo-1,6-dihydropyridazin-3-yl]-N-(2-piperidin-1-ylethyl)biphenyl-4-carboxamide] the pIC50 was 9.89. With `CCn1nc(-c2cccc(-c3cccc(C(=O)NC4CCC4)c3)c2)cc(Nc2cccc3ncccc23)c1=O` [Example 25, N-cyclobutyl-3'-[1-ethyl-6-oxo-5-(quinolin-5-ylamino)-1,6-dihydropyridazin-3-yl]biphenyl-3-carboxamide] the pIC50 was 9.68. `CCn1nc(-c2cccc(-c3cccc(CCC(=O)NC4CC4)c3)c2)cc(Nc2cccc3ncccc23)c1=O` [Example 38, N-cyclopropyl-3-{3'-[1-ethyl-6-oxo-5-(quinolin-5-ylamino)-1,6-dihydropyridazin-3-yl]biphenyl-3-yl}propanamide] gave a pIC50 of 10.00. `CCn1nc(-c2cccc(-c3cc(C(=O)NCCN4CCC[C@H]4COC)cc(C(=O)NC4CC4)c3)c2)cc(Nc2cccc3ncccc23)c1=O` [Example 63, N-cyclopropyl-3'-[1-ethyl-6-oxo-5-(quinolin-5-ylamino)-1,6-dihydropyridazin-3-yl]-N'-{2-[(2S)-2-(methoxymethyl)pyrrolidin-1-yl]ethyl}biphenyl-3,5-dicarboxamide] gave a pIC50 of 10.43. With `CCn1nc(-c2cccc(-c3cccc(C(=O)NCCCCCCCN(C)CCO)c3)c2)cc(Nc2cccc3ncccc23)c1=O` [Example 29, 3'-[1-ethyl-6-oxo-5-(quinolin-5-ylamino)-1,6-dihydropyridazin-3-yl]-N-{7-[(2-hydroxyethyl)(methyl)amino]heptyl}biphenyl-3-carboxamide] the pIC50 was 10.60. `CCn1nc(-c2cccc(-c3ccc(C(=O)O)cc3)c2)cc(Nc2cncc3ccccc23)c1=O` [Example 5, 3'-[1-ethyl-5-(isoquinolin-4-ylamino)-6-oxo-1,6-dihydropyridazin-3-yl]biphenyl-4-carboxylic acid] was tested, and the pIC50 was 9.35. In the case of `CCn1nc(-c2cccc(-c3ccc(CC(=O)NCCN4CCCCC4)cc3)c2)cc(Nc2cccc3ncccc23)c1=O` [Example 54, 2-{3'-[1-ethyl-6-oxo-5-(quinolin-5-ylamino)-1,6-dihydropyridazin-3-yl]biphenyl-4-yl}-N-(2-piperidin-1-ylethyl)acetamide], the pIC50 was 10.05. `CCn1nc(-c2cccc(-c3cccc(C(=O)NCC(=O)O)c3)c2)cc(Nc2cccc3ncccc23)c1=O` [Example 49, N-({3'-[1-ethyl-6-oxo-5-(quinolin-5-ylamino)-1,6-dihydropyridazin-3-yl]biphenyl-3-yl}carbonyl)glycine] gave a pIC50 of 10.38. With `CCn1nc(-c2cccc(-c3cccc(C(N)=O)c3)c2)cc(Nc2cccc3c2ccc[n+]3[O-])c1=O` [Example 7, 3'-{1-ethyl-5-[(1-oxidoquinolin-5-yl)amino]-6-oxo-1,6-dihydropyridazin-3-yl}biphenyl-3-carboxamide] the pIC50 was 10.80. `CCn1nc(-c2cccc(-c3cccc(C(=O)NC4CCCC4)c3)c2)cc(Nc2cccc3ncccc23)c1=O` [Example 27, N-cyclopentyl-3'-[1-ethyl-6-oxo-5-(quinolin-5-ylamino)-1,6-dihydropyridazin-3-yl]biphenyl-3-carboxamide] gave a pIC50 of 10.80. For `CCn1nc(-c2cccc(-c3cccc(C(=O)NC4CCC4)c3)c2)cc(Nc2cncc3ccccc23)c1=O` [Example 19, N-cyclobutyl-3'-[1-ethyl-5-(isoquinolin-4-ylamino)-6-oxo-1,6-dihydropyridazin-3-yl]biphenyl-3-carboxamide], the pIC50 was 9.65.
